# Reference: patent USRE50082E1, “(5,6-dihydro)pyrimido[4,5-e]indolizines” (NETHERLANDS TRANSLATIONAL RESEARCH CENTER B.V., priority 2014, dated 2024)
# Tested on: MOLT-4 cancer cell line
# Experiment: Cell proliferation assay, MOLT-4 cancer cell line (ATPlite);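 also: luminescence read-out, percent growth versus compound-free DMSO wells as maximum growth, start-of-incubation signal separating growth from cell death, IC50 from logistic curve fit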
# Assay type: cell-based
# Conditions: Homo sapiens, MOLT-4; 72 hours incubation, ATPlite 1Step; read-out: IC50 MOLT-4 cell proliferation
# Protocol: 5 μL of compound solution was added and the plates were incubated for an additional 72 hours after which 25 μL of ATPlite 1Step™ (PerkinElmer, Groningen, The Netherlands) solution was added to each well. Luminescence was recorded on an Envision multimode reader. The cell signal at the start of incubation was recorded separately in order to distinguish between cell population growth and cell death. In addition, maximum growth was determined by incubation of a duplicate without compound in the presence of 0.4% DMSO. Percentage growth was used as the main y-axis signal. IC50s were fitted by non-linear regression using IDBS XLfit™5 using a 4-parameter logistic curve, yielding a maximum signal, minimum signal, hill-parameter and IC50.
row,SMILES,IC50
1,"COCC(=O)N1CCN(c2ccc(Nc3ncc4c(n3)-n3ccc(C(=O)Nc5c(C)cccc5C)c3CC4)c(OC)c2)CC1 [Example 105, N-(2,6-dimethylphenyl)-2-[2-methoxy-4-[4-(2-methoxyacetyl)piperazin-1-yl]anilino]-5,6-dihydropyrimido[4,5-e]indolizine-7-carboxamide]",< 50 nM
2,"CCc1nn(CCOC)c(CC)c1NC(=O)c1ccn2c1CCc1cnc(Nc3ccc(N4CCN(C)CC4)cc3OC)nc1-2 [Example 109, N-[3,5-diethyl-1-(2-methoxyethyl)pyrazol-4-yl]-2-[2-methoxy-4-(4-methylpiperazin-1-yl)anilino]-5,6-dihydropyrimido[4,5-e]indolizine-7-carboxamide]",< 50 nM
3,"COc1cc(N2CCN(C(=O)C3CC3)CC2)ccc1Nc1ncc2c(n1)-n1ccc(C(=O)Nc3c(C)cccc3C)c1CC2 [Example 112, 2-[4-[4-(Cyclopropanecarbonyl)piperazin-1-yl]-2-methoxy-anilino]-N-(2,6-dimethylphenyl)-5,6-dihydropyrimido[4,5-e]indolizine-7-carboxamide]",< 50 nM
4,"CCNC(=O)N1CCN(c2ccc(Nc3ncc4c(n3)-n3ccc(C(=O)Nc5c(C)cccc5C)c3CC4)c(OC)c2)CC1 [Example 114, N-(2,6-dimethylphenyl)-2-[4-[4-(ethylcarbamoyl)piperazin-1-yl]-2-methoxy-anilino]-5,6-dihydropyrimido[4,5-e]indolizine-7-carboxamide]",< 50 nM
5,"CCc1cccc(CC)c1NC(=O)c1ccn2c1CCc1cnc(Nc3ccc(N4CCNC(C)C4)cc3OC)nc1-2 (stereo not shown) [Example 116, N-(2,6-diethylphenyl)-2-[2-methoxy-4-(3-methylpiperazin-1-yl)anilino]-5,6-dihydropyrimido[4,5-e]indolizine-7-carboxamide]",< 50 nM
6,"COc1cc(C(=O)N[C@@H]2CCNC[C@@H]2OC)ccc1Nc1ncc2c(n1)-n1ccc(C(=O)Nc3c(C)cccc3C)c1CC2 [Example 117, N-(2,6-dimethylphenyl)-2-[2-methoxy-4-[[(3S,4R)-3-methoxy-4-piperidyl]carbamoyl]anilino]-5,6-dihydropyrimido[4,5-e]indolizine-7-carboxamide]",< 50 nM
7,"COc1cc(C(=O)N[C@@H]2CCNC[C@@H]2F)ccc1Nc1ncc2c(n1)-n1ccc(C(=O)Nc3c(C)cccc3C)c1CC2 [Example 118, N-(2,6-dimethylphenyl)-2-[4-[[(3S,4R)-3-fluoro-4-piperidyl]carbamoyl]-2-methoxy-anilino]-5,6-dihydropyrimido[4,5-e]indolizine-7-carboxamide]",< 50 nM
8,"COc1cc(C(=O)NC(C)C)ccc1Nc1ncc2c(n1)-n1ccc(C(=O)Nc3c(C)cccc3C)c1CC2 [Example 120, N-(2,6-dimethylphenyl)-2-[4-(isopropylcarbamoyl)-2-methoxy-anilino]-5,6-dihydropyrimido[4,5-e]indolizine-7-carboxamide]",< 50 nM
9,"COc1cc(C(=O)N2CCOCC2)ccc1Nc1ncc2c(n1)-n1ccc(C(=O)Nc3c(C)cccc3C)c1CC2 [Example 122, N-(2,6-dimethylphenyl)-2-[2-methoxy-4-(morpholine-4-carbonyl)anilino]-5,6-dihydropyrimido[4,5-e]indolizine-7-carboxamide]",< 50 nM
10,"CCN1CCCN(C(=O)c2ccc(Nc3ncc4c(n3)-n3ccc(C(=O)Nc5c(C)cccc5C)c3CC4)c(OC)c2)CC1 [Example 124, N-(2,6-dimethylphenyl)-2-[4-(4-ethyl-1,4-diazepane-1-carbonyl)-2-methoxy-anilino]-5,6-dihydropyrimido[4,5-e]indolizine-7-carboxamide]",< 50 nM
11,"COc1cc(C(=O)NC2CC2)ccc1Nc1ncc2c(n1)-n1ccc(C(=O)Nc3c(C)cccc3C)c1CC2 [Example 126, 2-[4-(cyclopropylcarbamoyl)-2-methoxy-anilino]-N-(2,6-dimethylphenyl)-5,6-dihydropyrimido[4,5-e]indolizine-7-carboxamide]",< 50 nM
12,"COc1cc(C(=O)N2CCC(C)(C#N)CC2)ccc1Nc1ncc2c(n1)-n1ccc(C(=O)Nc3c(C)cccc3C)c1CC2 [Example 129, 2-[4-(4-Cyano-4-methyl-piperidine-1-carbonyl)-2-methoxy-anilino]-N-(2,6-dimethylphenyl)-5,6-dihydropyrimido[4,5-e]indolizine-7-carboxamide]",< 50 nM
13,"COc1cc(N2CCN(C(=O)C3(C)CNC3)CC2)ccc1Nc1ncc2c(n1)-n1ccc(C(=O)Nc3c(C)cccc3C)c1CC2 [Example 130, N-(2,6-dimethylphenyl)-2-[2-methoxy-4-[4-(3-methylazetidine-3-carbonyl)piperazin-1-yl]anilino]-5,6-dihydropyrimido[4,5-e]indolizine-7-carboxamide]",< 50 nM
14,"COCCn1nc(C)c(NC(=O)c2ccn3c2CCc2cnc(Nc4ccc(N5CCN(C(=O)C6CC(F)C6)CC5)cc4OC)nc2-3)c1C (stereo not shown) [Example 132, 2-[4-[4-(3-Fluorocyclobutanecarbonyl)piperazin-1-yl]-2-methoxy-anilino]-N-[1-(2-methoxyethyl)-3,5-dimethyl-pyrazol-4-yl]-5,6-dihydropyrimido[4,5-e]indolizine-7-carboxamide]",50 to 150 nM
15,"CCc1cccc(CC)c1NC(=O)c1ccn2c1CCc1cnc(Nc3ccc(N(C)CCCN(C)C)cc3OC)nc1-2 [Example 134, N-(2,6-diethylphenyl)-2-[4-[3-(dimethylamino)propyl-methyl-amino]-2-methoxy-anilino]-5,6-dihydropyrimido[4,5-e]indolizine-7-carboxamide]",< 50 nM
16,"COCCOCCOCCn1nc(C)c(NC(=O)c2ccn3c2CCc2cnc(Nc4ccc(N(C)CCCN(C)C)cc4OC)nc2-3)c1C [Example 135, 2-[4-[3-(Dimethylamino)propyl-methyl-amino]-2-methoxy-anilino]-N-[1-[2-[2-(-2-methoxyethoxy)ethoxy]ethyl]-3,5-dimethyl-pyrazol-4-yl]-5,6-dihydropyrimido[4,5-e]indolizine-7-carboxamide]",< 50 nM
17,"COc1cc(N2CCN(C)CC2)ccc1Nc1ncc2c(n1)-n1ccc(C(=O)Nc3c(C)nn(CC4CCO4)c3C)c1CC2 (stereo not shown) [Example 140, N-[3,5-dimethyl-1-(oxetan-2-ylmethyl)pyrazol-4-yl]-2-[2-methoxy-4-(4-methylpiperazin-1-yl)anilino]-5,6-dihydropyrimido[4,5-e]indolizine-7-carboxamide]",50 to 150 nM
18,"CCc1nn(C2COC2)c(CC)c1NC(=O)c1ccn2c1CCc1cnc(Nc3ccc(N4CCN(C)CC4)cc3OC)nc1-2 [Example 142, N-[3,5-diethyl-1-(oxetan-3-yl)pyrazol-4-yl]-2-[2-methoxy-4-(4-methylpiperazin-1-yl)anilino]-5,6-dihydropyrimido[4,5-e]indolizine-7-carboxamide]",50 to 150 nM
19,"COc1cc(N2CCN(C(=O)NC(C)C)CC2)ccc1Nc1ncc2c(n1)-n1ccc(C(=O)Nc3c(C)cccc3C)c1CC2 [Example 145, N-(2,6-dimethylphenyl)-2-[4-[4-(isopropylcarbamoyl)piperazin-1-yl]-2-methoxy-anilino]-5,6-dihydropyrimido[4,5-e]indolizine-7-carboxamide]",< 50 nM

# Further lines, results first:
row,IC50,SMILES
1,< 50 nM,"CCc1cccc(CC)c1NC(=O)c1ccn2c1CCc1cnc(Nc3cnc(N4CCN(C)CC4)nc3OC)nc1-2 [Example 107, N-(2,6-diethylphenyl)-2-[[4-methoxy-2-(4-methylpiperazin-1-yl)pyrimidin-5-yl]amino]-5,6-dihydropyrimido[4,5-e]indolizine-7-carboxamide]"
2,< 50 nM,"CCCCS(=O)(=O)N1CCN(c2ccc(Nc3ncc4c(n3)-n3ccc(C(=O)Nc5c(C)cccc5C)c3CC4)c(OC)c2)CC1 [Example 113, 2-[4-(4-Butylsulfonylpiperazin-1-yl)-2-methoxy-anilino]-N-(2,6-dimethylphenyl)-5,6-dihydropyrimido[4,5-e]indolizine-7-carboxamide]"
3,< 50 nM,"COCCNC(=O)c1ccc(Nc2ncc3c(n2)-n2ccc(C(=O)Nc4c(C)cccc4C)c2CC3)c(OC)c1 [Example 127, N-(2,6-dimethylphenyl)-2-[2-methoxy-4-(2-methoxyethylcarbamoyl)anilino]-5,6-dihydropyrimido[4,5-e]indolizine-7-carboxamide]"
4,50 to 150 nM,"COc1cc(C(=O)NCCN2CCCCC2)ccc1Nc1ncc2c(n1)-n1ccc(C(=O)Nc3c(C)cccc3C)c1CC2 [Example 128, N-(2,6-dimethylphenyl)-2-[2-methoxy-4-[2-(1-piperidyl)ethylcarbamoyl]anilino]-5,6-dihydropyrimido[4,5-e]indolizine-7-carboxamide]"
5,50 to 150 nM,"COCCn1nc(C)c(NC(=O)c2ccn3c2CCc2cnc(Nc4ccc(N5CCN(C(C)=O)CC5)cc4OC)nc2-3)c1C [Example 131, 2-[4-(4-Acetylpiperazin-1-yl)-2-methoxy-anilino]-N-[1-(2-methoxyethyl)-3,5-dimethyl-pyrazol-4-yl]-5,6-dihydropyrimido[4,5-e]indolizine-7-carboxamide]"
6,< 50 nM,"COc1cc(N2CCN(C)CC2)ccc1Nc1ncc2c(n1)-n1ccc(C(=O)Nc3c(C)cccc3C#N)c1CC2 [Example 133, N-(2-cyano-6-methyl-phenyl)-2-[2-methoxy-4-(4-methylpiperazin-1-yl)anilino]-5,6-dihydropyrimido[4,5-e]indolizine-7-carboxamide]"
7,50 to 150 nM,"CCc1cccc(CC)c1NC(=O)c1ccn2c1CCc1cnc(Nc3ccc(OCCOC)cc3OC)nc1-2 [Example 136, N-(2,6-diethylphenyl)-2-[2-methoxy-4-(2-methoxyethoxy)anilino]-5,6-dihydropyrimido[4,5-e]indolizine-7-carboxamide]"
8,< 50 nM,"COCCOCCOCCn1nc(C)c(NC(=O)c2ccn3c2CCc2cnc(Nc4ccc(OCCOC)cc4OC)nc2-3)c1C [Example 137, N-[1-[2-[2-(2-methoxyethoxy)ethoxy]ethyl]-3,5-dimethyl-pyrazol-4-yl]-2-[2-methoxy-4-(2-methoxyethoxy)anilino]-5,6-dihydropyrimido[4,5-e]indolizine-7-carboxamide]"
9,< 50 nM,"Cc1cccc(C)c1NC(=O)c1ccn2c1CCc1cnc(Nc3ccc(N4CCN(C)CC4)cc3OC(F)F)nc1-2 [Example 144, N-(2,6-dimethyl-phenyl)-2-[2-(difluoromethoxy)-4-(4-methylpiperazin-1-yl)anilino]-5,6-dihydropyrimido[4,5-e]indolizine-7-carboxamide]"
